Activity calls are given as the source filed them. No cut-off for these calls is given here.
Columns and labels:
Plasmodium falciparum [1] = assay: Antiplasmodial activity against sorbitol-synchronized ring stage chloroquine sensitive Plasmodium falciparum 3D7 infected in erythrocytes measured after 48 hrs by SYBR green dye based fluorescence analysis; format: functional, organism-based; details: 3D7, Erythrocyte
Plasmodium falciparum [2] = assay: Antiplasmodial activity against GFP expressing sorbitol-synchronized ring stage laboratory adapted Plasmodium falciparum 3D7HT assessed as reduction in infectivity by measuring inhibition of gametocyte formation at 10 uM treated for 72 hrs followed by replacement with fresh media without compound for 24 hrs and measured on day 4 by giemsa staining based microscopic analysis; format: functional
[3] = molecular target: T1, Dihydroorotate dehydrogenase (quinone), mitochondrial (Plasmodium falciparum (isolate 3D7)) (UniProt Q08210); assay: Inhibition of Plasmodium falciparum DHODH assessed as residual activity at 100 uM measured over 60 secs by DCIP dye based colorimetric assay relative to control; details: time > 60.0 sec
T1 sequence (whole entry): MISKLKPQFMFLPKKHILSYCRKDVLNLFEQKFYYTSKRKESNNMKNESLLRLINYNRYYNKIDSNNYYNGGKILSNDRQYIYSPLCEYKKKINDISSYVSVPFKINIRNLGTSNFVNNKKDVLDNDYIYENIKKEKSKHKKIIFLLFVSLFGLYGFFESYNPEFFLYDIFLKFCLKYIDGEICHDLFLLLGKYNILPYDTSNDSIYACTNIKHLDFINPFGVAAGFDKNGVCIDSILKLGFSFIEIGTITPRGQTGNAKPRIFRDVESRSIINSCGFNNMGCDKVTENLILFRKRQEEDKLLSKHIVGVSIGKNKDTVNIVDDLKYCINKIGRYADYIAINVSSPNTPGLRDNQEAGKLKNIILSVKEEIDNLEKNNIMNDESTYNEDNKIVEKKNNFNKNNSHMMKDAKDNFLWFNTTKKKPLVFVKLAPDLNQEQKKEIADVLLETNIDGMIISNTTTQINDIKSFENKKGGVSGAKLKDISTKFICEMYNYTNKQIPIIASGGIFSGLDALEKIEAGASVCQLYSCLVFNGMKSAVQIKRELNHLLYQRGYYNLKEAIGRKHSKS

Plasmodium falciparum [4] = assay: (§1) Antiplasmodial activity against sorbitol-synchronized ring stage chloroquine resistant Plasmodium falciparum K1 infected in erythrocytes measured after 48 hrs by SYBR green dye based fluorescence analysis; format: functional, organism-based; details: K1, Erythrocyte
[5] = Cytotoxicity against human HepG2 cells assessed as reduction in cell viability incubated for 72 hrs by MTT assay; format: toxicity, cell-based
Plasmodium falciparum [6] = assay: Resistance index, ratio of IC50 for antiplasmodial activity against sorbitol-synchronized ring stage chloroquine resistant Plasmodium falciparum K1 infected in erythrocytes to IC50 for antiplasmodial activity against sorbitol-synchronized ring stage chloroquine sensitive Plasmodium falciparum 3D7 infected in erythrocytes; format: functional
Plasmodium berghei = assay: Antiplasmodial activity against GFP-expressing Plasmodium berghei HSP70 infected in CD-1 mouse assessed as inhibition of ookinete formation at 10 uM measured after 22 hrs by giemsa staining based microscopic analysis; format: functional; details: read-out: INH
[7] = molecular target: T1, Dihydroorotate dehydrogenase (quinone), mitochondrial (Plasmodium falciparum (isolate 3D7)); assay: Inhibition of Plasmodium falciparum DHODH at 100 uM measured over 60 secs by DCIP dye based colorimetric assay relative to control; details: time > 60.0 sec
[8] = Selectivity index, ratio of CC50 for human HepG2 cells to IC50 for antiplasmodial activity against sorbitol-synchronized ring stage chloroquine sensitive Plasmodium falciparum 3D7 infected in erythrocytes; format: toxicity, cell-based; details: Plasmodium falciparum 3D7 in erythrocytes, read-out: Ratio CC50/IC50
Plasmodium falciparum [9] = assay: Antiplasmodial activity against Plasmodium falciparum 3D7; format: functional, organism-based
[10] = molecular target: T2, Dihydroorotate dehydrogenase (quinone), mitochondrial (Plasmodium falciparum (isolate 3D7), UniProt Q08210); assay: Inhibition of Plasmodium falciparum DHODH
T2 sequence (Q08210 whole entry): T1 sequence (whole entry)

Plasmodium falciparum [11] = assay: Potency index, ratio of chloroquine IC50 to test compound IC50 for antiplasmodial activity chloroquine-resistant against Plasmodium falciparum W2 by anti-[…] incorporation assay; format: functional
Plasmodium falciparum [12] = assay: (§2) Antiplasmodial activity against sorbitol-synchronized ring stage atovaquone resistant Plasmodium falciparum TM90C6B harboring Y268S mutation in CYTB gene, Y184F mutation in MDR1 gene, N51I/C59R/S108N mutation in DHFR gene and S436F/A437G/A581G mutation in DHPS gene infected in erythrocytes measured after 48 hrs by SYBR green dye based fluorescence analysis; format: functional, organism-based; details: Erythrocyte
Plasmodium falciparum [13] = assay: (§3) Resistance index, ratio of IC50 for antiplasmodial activity against sorbitol-synchronized ring stage atovaquone resistant Plasmodium falciparum TM90C6B harboring Y268S mutation in CYTB gene, Y184F mutation in MDR1 gene, N51I/C59R/S108N mutation in DHFR gene and S436F/A437G/A581G mutation in DHPS gene infected in erythrocytes to IC50 for antiplasmodial activity against sorbitol-synchronized ring stage chloroquine sensitive Plasmodium falciparum 3D7 infected in erythrocytes; format: functional
Plasmodium falciparum [14] = assay: as §1, with “2-(1,1-difluoroethyl)-5-methyl-N-(4-(pentafluoro-l6-sulfaneyl)phenyl)-[1,2,4]triazolo[1,5-a]pyrimidin-7-amine” for “chloroquine”, “Dd2” for “K1”; format: functional, organism-based; details: Dd2, Erythrocyte
Plasmodium falciparum [15] = assay: Resistance index, ratio of IC50 for antiplasmodial activity against sorbitol-synchronized ring stage 2-(1,1-difluoroethyl)-5-methyl-N-(4-(pentafluoro-l6-sulfaneyl)phenyl)-[1,2,4]triazolo[1,5-a]pyrimidin-7-amine resistant Plasmodium falciparum Dd2 infected in erythrocytes to IC50 for antiplasmodial activity against sorbitol-synchronized ring stage chloroquine sensitive Plasmodium falciparum 3D7 infected in erythrocytes; format: functional
Plasmodium falciparum [16] = assay: Antiplasmodial activity against sorbitol-synchronized ring stage MMV848 resistant Plasmodium falciparum 3D7 infected in erythrocytes measured after 48 hrs by SYBR green dye based fluorescence analysis; format: functional, organism-based; details: 3D7, Erythrocyte
Plasmodium falciparum [17] = assay: as §2, with “chloroquine, mefloquine and pyrimethamine” for “atovaquone”, “Dd2” for “TM90C6B”, “N86F/M74I/ N75E/[…]” for “Y268S mutation in CYTB gene, Y184F”, “S436F/A437G/A613S” for “S436F/A437G/A581G”; format: functional, organism-based; details: Dd2, Erythrocyte
Plasmodium falciparum [18] = assay: Resistance index, ratio of IC50 for antiplasmodial activity against sorbitol-synchronized ring stage MMV848 resistant Plasmodium falciparum 3D7 infected in erythrocytes to IC50 for antiplasmodial activity against sorbitol-synchronized ring stage chloroquine sensitive Plasmodium falciparum 3D7 infected in erythrocytes; format: functional
Plasmodium falciparum [19] = assay: as §3, with “chloroquine, mefloquine and pyrimethamine” for “atovaquone”, “Dd2” for “TM90C6B”, “N86F/M74I/ N75E/[…]” for “Y268S mutation in CYTB gene, Y184F”, “S436F/A437G/A613S” for “S436F/A437G/A581G”; format: functional
[20] = molecular target: T2, Dihydroorotate dehydrogenase (quinone), mitochondrial; assay: Inhibition of Plasmodium falciparum DHODH measured over 60 secs by DCIP dye based colorimetric assay
Plasmodium falciparum [21] = assay: Antiplasmodial activity against Plasmodium falciparum infected in erythrocytes assessed as induction of parasite death by measuring irreversible chromatin condensation with appearance of pyknotic nuclei at 300 nM measured after 24 hrs; format: functional, organism-based; details: Erythrocyte
[22] = Ratio of IC50 for Plasmodium falciparum infected in erythrocytes measured after 24 hrs by SYBR green dye based fluorescence assay to IC50 for Plasmodium falciparum infected in erythrocytes measured after 72 hrs by SYBR green dye based fluorescence assay; format: functional, Erythrocyte

Row | Compound | IC50 (Plasmodium falciparum [1]) [nM] | inhibition at 10 µM (Plasmodium falciparum [2]) [%] | Activity [3] [%] | IC50 (Plasmodium falciparum [4]) [nM] | CC50 at 72 h [5] [nM] | Percent inhibition of ookinete formation at 10 µM (Plasmodium berghei) [%] | inhibition [7] [%] | selectivity ratio [8] | further results
1 | Cc1cc(NCCCNc2ccnc3cc(Cl)ccc23)n2nc(C)nc2n1 | 840 | 50 | 97 | 640 | 110000 | 23 | < 50 | 131 | Ratio IC50 (Plasmodium falciparum [6]): 0.8
2 | Clc1ccc2c(N3CCN(CCCN4CCN(c5ccnc6cc(Cl)ccc56)CC4)CC3)ccnc2c1 [PIPERAQUINE] |  |  |  |  |  |  |  |  | IC50 (Plasmodium falciparum [9]): 60 nM
3 | Cc1cc(NCCCNc2ccnc3cc(Cl)ccc23)n2nc(C(F)(F)F)nc2n1 | 673 |  | 51.5 | 3000 | 113000 |  | < 50 | 168 | Ratio IC50 (Plasmodium falciparum [6]): 4.5
4 | Cc1cc(Nc2ccc3ccccc3c2)n2nc(C(F)(F)F)nc2n1 |  |  |  |  |  |  |  |  | IC50 [10]: 700 nM; Ratio IC50 (Plasmodium falciparum [11]): 10
5 | Cc1cc(NCCCCCCCNc2ccnc3cc(Cl)ccc23)n2nc(C)nc2n1 | 120 | 85.8 | 78.8 | 210 | 17000 | 0 | < 50 | 142 | IC50 (Plasmodium falciparum [12]): 180 nM; Ratio IC50 (Plasmodium falciparum [13]): 1.5; IC50 (Plasmodium falciparum [14]): 150 nM; Ratio IC50 (Plasmodium falciparum [15]): 1.3; IC50 (Plasmodium falciparum [16]): 50 nM; IC50 (Plasmodium falciparum [17]): 170 nM; Ratio IC50 (Plasmodium falciparum [18]): 0.4; Ratio IC50 (Plasmodium falciparum [19]): 1.4
6 | O=C1C(O)=C([C@H]2CC[C@H](c3ccc(Cl)cc3)CC2)C(=O)c2ccccc21 [ATOVAQUONE] | 1 |  |  |  |  | 78 |  |  | IC50 (Plasmodium falciparum [12]): > 1000 nM
7 | Cc1cc(N2CCN(c3ccnc4cc(Cl)ccc34)CC2)n2nc(C)nc2n1 | > 10000 |  | 93 |  |  |  | < 50 |  | 
8 | Cc1cc(NCCCCCCCNc2ccnc3cc(Cl)ccc23)n2nc(C(F)(F)F)nc2n1 | 400 | 69 | 16.4 |  | 13000 | 20 | 84 | 33 | IC50 [20]: 4800 nM; IC50 (Plasmodium falciparum [17]): 330 nM; Ratio IC50 (Plasmodium falciparum [19]): 0.8
9 | Cc1cc(NCCCCNc2ccnc3cc(Cl)ccc23)n2nc(C)cc2n1 |  |  | 89.4 |  | > 100000 | 22 | < 50 | > 1570 | 
10 | C[C@H]1[C@H](OC(=O)CCC(=O)O)O[C@@H]2O[C@@]3(C)CC[C@H]4[C@H](C)CC[C@@H]1[C@@]24OO3 [ARTESUNATE] |  |  |  |  |  |  |  |  | Activity (Plasmodium falciparum [21]): Active; Ratio IC50 [22]: 1.04
